Data published in ChEMBL document CHEMBL5120759, “Synthesis, Biological Evaluation, and Molecular Docking Study of 3-Amino and 3-Hydroxy-seco A Derivatives of α-Amyrin and 3-Epilupeol as Inhibitors of COX-2 Activity and NF-kB Activation” (J Nat Prod, 2022).
pIC50: −log10 of the molar value. The source made the active and inactive calls. The rule behind the calls is not given here.

Legend:
[1] = system: Mus musculus; experiment: Anti-inflammatory activity against TPA-induced auricular edema CD-1 mouse model assessed as inhibition of ear edema at 1 mg per ear applied immediately after TPA application and measured after 4 hrs relative to control; assay type: functional
[2] = system: RAW264.7; experiment: Cytotoxicity against mouse RAW264.7 cells assessed as reduction in cell viability at 8.8 to 70 uM incubated for 24 hrs by MTS assay; assay type: toxicity, cell-based; conditions: raw264.7, 24 h, dose 8.8-70 µM
[3] = target: T1, Prostaglandin G/H synthase 2 (Homo sapiens) (UniProt P35354); experiment: Inhibition of human COX-2 at 17.5 uM using arachidonic acid as substrate by colorimetric analysis
T1 sequence (whole entry): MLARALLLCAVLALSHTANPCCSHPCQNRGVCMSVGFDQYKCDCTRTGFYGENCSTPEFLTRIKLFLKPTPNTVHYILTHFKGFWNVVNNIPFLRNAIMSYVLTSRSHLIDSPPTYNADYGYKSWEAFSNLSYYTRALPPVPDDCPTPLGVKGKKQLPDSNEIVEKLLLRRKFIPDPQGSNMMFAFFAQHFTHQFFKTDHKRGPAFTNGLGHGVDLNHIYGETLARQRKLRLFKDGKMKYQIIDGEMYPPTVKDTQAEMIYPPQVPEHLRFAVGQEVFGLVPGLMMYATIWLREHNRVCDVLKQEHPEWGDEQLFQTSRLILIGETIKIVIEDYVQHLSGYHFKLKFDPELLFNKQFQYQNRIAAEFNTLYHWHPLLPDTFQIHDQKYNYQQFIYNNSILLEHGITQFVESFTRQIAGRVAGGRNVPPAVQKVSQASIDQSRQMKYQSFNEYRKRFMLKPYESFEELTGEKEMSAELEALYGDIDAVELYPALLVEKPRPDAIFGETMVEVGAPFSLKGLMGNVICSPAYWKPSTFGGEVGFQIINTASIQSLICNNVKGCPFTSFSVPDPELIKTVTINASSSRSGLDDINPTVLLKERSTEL

[4] = system: RAW264.7; experiment: Antiinflammatory activity against LPS-stimulated mouse RAW264.7 cells assessed as inhibition of IL-6 production at 84 uM incubated for 2 hrs followed by LPS stimulation for 20 hrs by ELISA relative to control; assay type: functional; conditions: time 22 hrs
[5] = system: RAW264.7; experiment: Antiinflammatory activity against LPS-stimulated mouse RAW264.7 cells assessed as inhibition of NO production incubated for 2 hrs followed by LPS stimulation for 20 hrs by Griess reagent based assay; assay type: functional, cell-based
[6] = system: RAW264.7; experiment: Antiinflammatory activity against LPS-stimulated mouse RAW264.7 cells assessed as inhibition of TNF-alpha production at 84 uM incubated for 2 hrs followed by LPS stimulation for 20 hrs by ELISA relative to control; assay type: functional; conditions: time 22 hrs
[7] = system: RAW264.7; experiment: Antiinflammatory activity against LPS-stimulated mouse RAW264.7 cells assessed as inhibition of TNF-alpha production at 17.5 to 70 uM prestimulated with LPS and 2 hrs later incubated with compound by […] assay; assay type: functional, cell-based; conditions: dose 17.5-70 µM
[8] = system: RAW264.7; experiment: Antiinflammatory activity against LPS-stimulated mouse RAW264.7 cells assessed as inhibition of TNF-alpha production at 70 uM incubated for 2 hrs followed by LPS stimulation for 20 hrs by ELISA relative to control; assay type: functional; conditions: time 22 hrs
[9] = system: RAW264.7; experiment: Antiinflammatory activity against LPS-stimulated mouse RAW264.7 cells assessed as inhibition of IL-6 production at 17.5 to 70 uM prestimulated with LPS and 2 hrs later incubated with compound by […] assay; assay type: functional, cell-based; conditions: dose 17.5-70 µM
[10] = system: RAW264.7; experiment: Antiinflammatory activity against LPS-stimulated mouse RAW264.7 cells assessed as inhibition of IL-6 production at 70 uM incubated for 2 hrs followed by LPS stimulation for 20 hrs by ELISA relative to control; assay type: functional; conditions: time 22 hrs
[11] = system: RAW264.7; experiment: Antiinflammatory activity against LPS-stimulated mouse RAW264.7 cells assessed as inhibition of NO production at 8.8 to 70 uM prestimulated with LPS and 2 hrs later incubated with compound by Griess reagent based assay; assay type: functional, cell-based; conditions: dose 8.8-70 µM
[12] = system: RAW-Blue; experiment: Inhibition of NF-kappaB activation in LPS-stimulated mouse RAW-Blue cells at 70 uM preincubated for 2 hrs followed by LPS stimulation and measured after 20 hrs by QUANTI-Blue assay; assay type: cell-based; conditions: time 22.0 hrs
[13] = target: T2, COX-1 (Prostaglandin G/H synthase 1) (Ovis aries, UniProt P05979); experiment: Inhibition of ovine COX-1 at 17.5 uM using arachidonic acid as substrate by colorimetric analysis; assay type: single protein; conditions: sheep, ovine COX-1 enzyme, probe arachidonic acid
T2 sequence (P05979 whole entry): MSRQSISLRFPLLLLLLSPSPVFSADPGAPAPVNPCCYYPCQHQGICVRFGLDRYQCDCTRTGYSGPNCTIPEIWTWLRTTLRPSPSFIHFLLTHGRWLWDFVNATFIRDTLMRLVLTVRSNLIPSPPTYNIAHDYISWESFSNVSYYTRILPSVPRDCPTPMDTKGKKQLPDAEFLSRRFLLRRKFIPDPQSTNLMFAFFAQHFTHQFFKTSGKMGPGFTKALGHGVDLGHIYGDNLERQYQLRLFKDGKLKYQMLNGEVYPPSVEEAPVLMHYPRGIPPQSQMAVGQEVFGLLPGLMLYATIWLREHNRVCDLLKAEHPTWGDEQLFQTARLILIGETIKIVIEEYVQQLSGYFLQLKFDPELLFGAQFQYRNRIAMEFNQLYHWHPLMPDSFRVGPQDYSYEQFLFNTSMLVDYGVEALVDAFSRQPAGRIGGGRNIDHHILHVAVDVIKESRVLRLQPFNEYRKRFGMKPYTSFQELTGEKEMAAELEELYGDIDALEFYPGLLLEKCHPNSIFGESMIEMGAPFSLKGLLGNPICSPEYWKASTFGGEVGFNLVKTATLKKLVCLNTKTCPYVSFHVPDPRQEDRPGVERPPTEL

[14] = system: RAW264.7; experiment: Antiinflammatory activity against LPS-stimulated mouse RAW264.7 cells assessed as inhibition of IL-6 production incubated for 2 hrs followed by LPS stimulation for 20 hrs by ELISA; assay type: functional, cell-based
[15] = Cytotoxicity against mouse RAW264.7 cells assessed as cell viability at 70 uM incubated for 24 hrs by MTS assay relative to control; assay type: toxicity, cell-based; conditions: read-out: Activity
[16] = system: RAW264.7; experiment: Antiinflammatory activity against LPS-stimulated mouse RAW264.7 cells assessed as inhibition of TNF-alpha production at 8.8 to 35 uM prestimulated with LPS and 2 hrs later incubated with compound by […] assay; assay type: functional, cell-based; conditions: dose 8.8-35 µM
[17] = system: RAW264.7; experiment: Antiinflammatory activity against LPS-stimulated mouse RAW264.7 cells assessed as inhibition of TNF-alpha production at 35 uM incubated for 2 hrs followed by LPS stimulation for 20 hrs by ELISA relative to control; assay type: functional; conditions: time 22 hrs
[18] = system: RAW264.7; experiment: Antiinflammatory activity against LPS-stimulated mouse RAW264.7 cells assessed as inhibition of NO production at 4.4 to 35 uM prestimulated with LPS and 2 hrs later incubated with compound by Griess reagent based assay; assay type: functional, cell-based; conditions: dose 4.4-35 µM
[19] = system: RAW-Blue; experiment: Inhibition of NF-kappaB activation in LPS-stimulated mouse RAW-Blue cells at 35 uM preincubated for 2 hrs followed by LPS stimulation and measured after 20 hrs by QUANTI-Blue assay; assay type: cell-based; conditions: time 22.0 hrs
[20] = system: RAW264.7; experiment: Antiinflammatory activity against LPS-stimulated mouse RAW264.7 cells assessed as inhibition of IL-6 production at 8.8 to 35 uM prestimulated with LPS and 2 hrs later incubated with compound by […] assay; assay type: functional, cell-based; conditions: dose 8.8-35 µM
[21] = system: RAW-Blue; experiment: Inhibition of NF-kappaB activation in LPS-stimulated mouse RAW-Blue cells at 17.5 uM preincubated for 2 hrs followed by LPS stimulation and measured after 20 hrs by QUANTI-Blue assay; assay type: cell-based; conditions: time 22.0 hrs
[22] = Cytotoxicity against mouse RAW264.7 cells assessed as cell viability at 35 uM incubated for 24 hrs by MTS assay relative to control; assay type: toxicity, cell-based; conditions: read-out: Activity

| SMILES | inhibition [3] | pIC50 [5] | inhibition (INH) [1] | Activity [2] | Activity [7] | inhibition at 70 µM [8] | Activity [9] | Activity [11] | inhibition [12] | inhibition at 17.5 µM [13] | viability at 24 h, 70 µM [15] | also measured |
| --- | --- | --- | --- | --- | --- | --- | --- | --- | --- | --- | --- | --- |
| C=C(C)[C@@H]1CC[C@]2(C)CC[C@]3(C)[C@H](CC[C@@H]4[C@@]5(C)CC[C@@H](O)C(C)(C)[C@@H]5CC[C@]43C)[C@H]12 |  |  | 66.4% |  |  |  |  |  |  |  |  |  |
| COc1ccc2c(c1)c(CC(=O)O)c(C)n2C(=O)c1ccc(Cl)cc1 [INDOMETHACIN] |  | 4.39 | 91.4% |  |  |  |  |  |  |  |  | inhibition at 84 µM [4]: 44.2%; inhibition at 84 µM [6]: 54.6% |
| C=C(C)[C@@H]1CC[C@]2(C)CC[C@]3(C)[C@H](CC[C@@H]4[C@@](C)(CCCO)[C@H](C(=C)C)CC[C@]43C)[C@@H]12 | 26% | 4.26 | 17.3% | Non-Toxic | Active | 49.8% | Active | Active | 63.4% | 14.8% |  | pIC50 [14]: 4.42 |
| C=C(C)[C@@H]1CC[C@]2(C)CC[C@]3(C)[C@H](CC[C@@H]4[C@@](C)(CCCN5C[C@H](O)C[C@H]5C(=O)OC)[C@H](C(=C)C)CC[C@]43C)[C@@H]12 |  | 4.63 | 36.4% |  |  |  |  | Active |  | 7.2% | 64.2% | Activity [16]: Active; inhibition at 35 µM [17]: 55.7%; Activity [18]: Active; pIC50 [14]: 4.95; inhibition [19]: 87.4%; Activity [20]: Active |
| C[C@H]1[C@H](C)CC[C@]2(C(=O)O)CC[C@]3(C)C(=CC[C@@H]4[C@@]5(C)CC[C@H](O)C(C)(C)[C@@H]5CC[C@]43C)[C@H]12 [URSOLIC ACID] |  | 4.86 | 34.2% |  |  |  |  |  |  | 23.6% | 13.9% | inhibition [21]: 52.2%; viability at 24 h, 35 µM [22]: 30% |

The next lines start with results.

| inhibition [3] | pIC50 [5] | SMILES | inhibition (INH) [1] | Activity [2] | Activity [7] | inhibition at 70 µM [8] | Activity [9] | Activity [11] | inhibition [12] | inhibition at 17.5 µM [13] | viability at 24 h, 70 µM [15] | also measured |
| --- | --- | --- | --- | --- | --- | --- | --- | --- | --- | --- | --- | --- |
| 49.2% |  | C=C(C)[C@@H]1CC[C@]2(C)CC[C@]3(C)[C@H](CC[C@@H]4[C@@](C)(CCCN5CCOCC5)[C@H](C(=C)C)CC[C@]43C)[C@@H]12 | 11.1% | Non-Toxic |  |  |  |  |  |  |  |  |
| 66.3% | 4.23 | C=C(C)[C@@H]1CC[C@]2(C)[C@H](CC=C3[C@@H]4[C@@H](C)[C@H](C)CC[C@]4(C)CC[C@]32C)[C@@]1(C)CCCO | 9.5% | Non-Toxic | Active | 68.5% | Active | Active | 22% |  |  | inhibition at 70 µM [10]: 40.2% |
| 61.8% | 4.37 | C=C(C)[C@@H]1CC[C@]2(C)[C@H](CC=C3[C@@H]4[C@@H](C)[C@H](C)CC[C@]4(C)CC[C@]32C)[C@@]1(C)CCCN1C[C@H](O)C[C@H]1C(=O)OC | 25.2% | Non-Toxic | Active | 70% | Active | Active | 96.2% | 37.3% |  | inhibition at 70 µM [10]: 89.1% |
| 74.4% |  | C=C(C)[C@@H]1CC[C@]2(C)[C@H](CC=C3[C@@H]4[C@@H](C)[C@H](C)CC[C@]4(C)CC[C@]32C)[C@@]1(C)CCCN1CCOCC1 | 12.2% |  |  |  |  |  |  | 12.2% | 73.8% |  |
| 61.8% |  | C=C(C)[C@@H]1CC[C@]2(C)[C@H](CC=C3[C@@H]4[C@@H](C)[C@H](C)CC[C@]4(C)CC[C@]32C)[C@@]1(C)CCCNCC(=O)OC | 40.1% | Non-Toxic |  |  |  |  |  | 33.3% |  |  |
